Reference: patent US5889053A, “Farnesyl transferase inhibitors, preparation thereof and pharmaceuticals compositions containing said inhibitors” (Rhone-Poulenc Rorer S.A., priority 1995, dated 1999)

Key:
[1] = molecular target: T1, human farnesyl transferase (Homo sapiens, UniProt P49354+P49356); test: Inhibition of farnesyl transferase and of farnesylation of the Ras protein ([3H]farnesyl transfer from [3H]FPP to p21 H-Ras); format: biochemical; conditions: p21 H-Ras substrate, 20 min at 37° C., 9 concentrations; read-out: Inhibitory activity IC50
T1 construct: human farnesyl transferase purified from THP1 cell cultures; endogenous in cells; host or cells: THP1
Description: Farnesyl transferase activity is determined by the quantity of [^3 H]farnesyl transferred from [^3 H]farnesyl pyrophosphate ([^3 H]FPP) to the p21 H-Ras protein. The standard reaction mixture is composed, for a final volume of 60 μl, of 50 mM Tris-HCl, 5 mM MgCl2, 5 mM dithiothreitol, 0.2% octyl β-D-glucopyranoside, 200 picomol p21 H-Ras, 4.5 picomol [^3 H]FPP (activity 61000 dpm/picomol).
Reaction is initiated by adding approximately 5 ng of human farnesyl transferase purified from THP1 cell cultures. After incubation for 20 minutes at 37° C. in a microtitration plate containing 96 1-cm^3 wells per plate (Titer Plate®, Beckman), the reaction is stopped by adding 0.4 cm^3 of 0.1% SDS in methanol at 0° C. The mixture is then treated with 0.4 cm^3 of 30% trichloroacetic acid (TCA) in methanol. The plates are left in ice for 1 hour. The precipitated contents are then retained on Filtermat®, Pharmacia) glass fibre membranes with the filtration unit (Combi Cell Harvester®, Skatron), and rinsed with 6% trichloroacetic acid in distilled water. The membranes are dried in a microwave oven, then impregnated with scintillation medium by melting of Meltilex® (Pharmacia) under hot air, and lastly counted in cpm in a β-Plate counter® (LKB). Each test is repeated 3 times.
The unit of activity is defined as 1 picomole of [^3 H]FPP transferred to p21 H-Ras in 20 minutes.
The percentage inhibition values are obtained by comparison of the tests with and without inhibitor after deduction of blanks, the IC50 values being measured on the basis of the inhibitions obtained with 9 different concentrations using Enzfitter® or Grafit® software.

[2] = test system: farnesylation of the Ras protein in THAC cells (CCL 39 cells transfected with activated Ha-Ras); test: Activity against cells: inhibition of farnesylation of the Ras protein in THAC cells (Western blot); format: cell-based; conditions: CCL39, 24 h at 37° C.
Description: The activity against cells can be determined in the following way:
The cell line is the THAC line (CCL 39 cells transfected with activated Ha-Ras) according to K. Seuwen et al., EMBO J., 7(1) 161-168 (1988). The cells are cultured in Petri dishes with a diameter of 6 cm containing a DMEM medium, 5% foetal calf serum and 1% G418.
After culturing for 24 hours, the culture medium is changed (with or without the serum) and the product to be studied is added in solution in dimethylformamide (DMF), in the presence or in the absence of DTT (final concentrations of 0.5% in DMF and 0.1 mM in DTT). After culturing for 24 hours at 37° C., the cells are lysed in 1 cm^3 of lysis buffer (20 mM Tris, HCl, 1% Triton X114, 5 mM MgCl2, 7 mM DTT, 150 mM NaCl, pH=7.4). The lysates are clarified by centrifuging at 4000 revolutions/minute for 10 minutes. […] The radioactivity of the bands corresponding to farnesylated Ras and to non-farnesylated Ras makes it possible to determine the percentage of inhibition of farnesylation of the Ras protein.

Row | Structure (SMILES) | IC50 [1] [nM] | inhibition at 10 µM [2] [%]
1 | CSCC[C@H](NC(=O)c1ccc(NC[C@@H](N)CS)c2ccccc12)C(=O)O [Example 1, N-[4-(2(R)-amino-3-mercaptopropylamino)naphthyl-1-carbonyl]-L-methionine] | 23 | –
2 | COC(=O)[C@H](CCSC)NC(=O)c1ccc(NC[C@@H](N)CS)c2ccccc12 [Example 2, methyl ester of N-[4-(2(R)-amino-3-mercaptopropylamino)naphthyl-1-carbonyl]-L-methionine] | 100 | 40

Further lines, with some results ahead:

Row | IC50 [1] [nM] | Structure (SMILES) | inhibition at 10 µM [2] [%]
3 | 31 | CSCC[C@H](NC(=O)c1cc(NC[C@@H](N)CS)cc2ccccc12)C(=O)O [Example 4, N-[3-(2(R)-amino-3-mercaptopropylamino)naphthyl-1-carbonyl]-L-methionine] | –
4 | 300 | COC(=O)[C@H](CCSC)NC(=O)c1cc(NC[C@@H](N)CS)cc2ccccc12 [Example 5, methyl ester of N-[3-(2(R)-amino-3-mercaptopropylamino)naphthyl-1-carbonyl]-L-methionine] | –
5 | 55 | CSCC[C@H](NC(=S)c1cc(NC[C@@H](N)CS)cc2ccccc12)C(=O)O [Example 6, N-[3-(2(R)-amino-3-mercaptopropylamino)naphthyl-1-thiocarbonyl]-L-methionine] | –
